# Measurements published in US20220249597A1, “MIF INHIBITORS AND METHODS OF USE THEREOF” (The Johns Hopkins University, priority 2016, published 2022).
# What was measured:
# HeLa cells [1] = assay: Pulse-field gel electrophoresis assay of MNNG-induced DNA damage in HeLa cells; format: cell-based, human; details: DPQ 30 μM; ISO-1 100 μM
# Description: FIGS. 2A-2D. FIG. 2. MIF is a novel nuclease that cleaves genomic DNA.
# cortical neurons = details: N-Arg 100 μM
# Description: (H-J) Nuclear translocation of AIF and MIF after NMDA treatment in the presence or absence PARP inhibitor DPQ or nNOS inhibitor nitro-arginine (N-Arg, 100 μM) in cortical neurons, which was determined by subcellular fractionation. Intensity of MIF and AIF signal is shown in I & J. The experiments were replicated in three independent trials. The experiments were replicated in three independent trials. ***P<0.001, one-way ANOVA.
# Primary neuronal cultures from cortex were prepared as previously described (9). Briefly, the cortex was dissected and the cells were dissociated by trituration in modified Eagle's medium (MEM), 20% horse serum, 30 mM glucose, and 2 mM L-glutamine after a 10-min digestion in 0.027% trypsin/saline solution (Gibco-BRL). The neurons were plated on 15-mm multiwell plates coated with polyornithine or on coverslips coated with polyornithine. Neurons were maintained in MEM, 10% horse serum, 30 mM glucose, and 2 mM L-glutamine in a 7% CO2 humidified 37° C. incubator. The growth medium was replaced twice per week. In mature cultures, neurons represent 70 to 90% of the total number of cells. […] Parthanatos was induced by either MNNG (Sigma) in HeLa cells or NMDA (Sigma) in neurons. […]
# HeLa cells [2] = format: cell-based, human; details: DPQ 30 μM
# Description: FIGS. 21A-21J. FIG. 21. […] Scale bar, 20 μm.
# For immunocytochemistry, cells were fixed 4 hours after MNNG or NMDA treatment with 4% paraformaldehyde, permeabilized with 0.05% Triton X-100, and blocked with 3% BSA in PBS. AIF was visualized by Donkey anti-Rabbit Cy3 or donkey anti-rabbit 647. MIF was visualized by donkey anti-mouse cy2 (2 μg/ml), donkey anti-goat Cy2 or donkey anti-goat 647. Immunohistochemistry was performed with an antibody against Flag. Immunofluorescence analysis was carried out with an LSM710 confocal laser scanning microscope (Carl Zeiss) as described (9).
compound,measurement,setting,value
"O=C1NCCc2c(OCCCCN3CCCCC3)cccc21 [DPQ, 3,4-dihydro-5[4-(1-piperindinyl)butoxy]-1(2H)-isoquinoline]",Effect on MNNG induced DNA damage / DNA cleavage,HeLa cells [1],prevents MNNG induced DNA cleavage
same,Accumulation of MIF and AIF in the nucleus after NMDA administration,cortical neurons,prevents accumulation of both MIF and AIF in the nucleus
same,Accumulation of MIF and AIF in the nucleus after MNNG treatment,HeLa cells [2],prevents accumulation of both MIF and AIF in the nucleus
